Values of other authors in US20040180006A1, “Methods and compositions for blocking the calcium cascade” (priority 2003, published 2004).
Like-named read-outs stand apart in the source and are kept apart here.

Tests used:
[1] = tested on: mast cell plasma membrane potential; details: for effect on second (delayed) decrease of bis-oxonol fluorescence: induced by compound 48/80 or antigenic stimulation
[2] = tested on: rat peritoneal mast cells
[3] = tested on: rat basophilic leukemia cells (RBL 2H3); details: RBL 2H3 cells stimulated by immunoglobulin E-antigen; read-out: concentration required to inhibit histamine secretion from RBL 2H3 cells, immunoglobulin E-antigen
[4] = tested on: guinea pig trachea; details: 10^-4 to 10^-3 M

| Compound | effect on second (delayed) decrease of bis-oxonol fluorescence [1] | IC50 ([2]; peritoneal cells stimulated by imunoglobulin E-antigen, read-out: IC50 of histamine secretion, imunoglobulin E-antigen) [µM] | IC50 ([2]; peritoneal cells stimulated by ionophore A23187, read-out: IC50 of histamine secretion, ionophore A23187) [µM] | IC50 ([2]; peritoneal cells stimulated by phorbol 12-myristate 13-acetate, read-out: IC50 of histamine secretion, phorbol 12-myristate 13-acetate) [µM] | IC50 ([2]; peritoneal cells stimulated by substance P, read-out: IC50 of histamine secretion, substance P) [µM] | IC50 [3] [µM] | IgE-dependent contraction of guinea pig trachea [4] | contraction of guinea pig trachea induced by endogenous histamine [4] | effect on first (fast) decrease of bis-oxonol fluorescence ([1]; induced by compound 48/80) |
| --- | --- | --- | --- | --- | --- | --- | --- | --- | --- |
| C[C@@H]1O[C@@H](O[C@H]2C[C@@H](O)[C@]3(CO)[C@H]4[C@H](O)C[C@]5(C)[C@@H](C6=CC(=O)OC6)CC[C@]5(O)[C@@H]4CC[C@]3(O)C2)[C@H](O)[C@H](O)[C@H]1O [ouabain] | inhibited | – | – | – | – | – | – | – | – |
| zinc gluconate | did not alter | 18 | 1.6 | 1.9 | 5.4 | 140 | inhibited | unable to affect | inhibited |
